Test results as given in patent US8192962B2, “Processes for detecting toxic substances” (Daikin Industries, Ltd., priority 2001, dated 2012).

Tested on: Metabolism protein genes
Experiment: DNA chip mRNA expression in yeast, metabolism protein genes (Table 7)
Assay type: cell-based, Saccharomyces cerevisiae S288C
Method: Yeast (Saccharomyces cerevisiae S288C (α SUC2mal mel gap2 CUP1)) were incubated at 25° C. on YPD medium (yeast extract 1%, polypepton 2%, glucose 2%). One of toxic chemical substances was added to the cells at logarithmic growth phase, and the cells were further incubated for two hours. Cells were cultured without any chemical substance in the same condition, and were used as control. Concentrations of the chemical substances were defined to inhibit the growth of the yeast but not lead to death.
After completion of the incubation, the culture was centrifuged to collect the cells. To the cells, sodium acetate buffer (50 mM sodium acetate, 10 mM EDTA, 1% SDS) was added, and the mixture was shaken at 65° C. for five minutes, followed by returning to room temperature, and obtaining the supernatant, of which the procedures were repeated two times. To the supernatant, ½ amount of a solution of phenol/chloroform was added, and the mixture was centrifuged to give a supernatant, which was added with an equal amount of chloroform, and the mixture was centrifuged to give a supernatant. To the supernatant, an equal amount of isopropanol containing 0.3 M sodium acetate was added, and the mixture was allowed to stand at room temperature for 30 minutes, after which the mixture was centrifuged to give a sediment of the whole RNAs. Seventy % ethanol was added to the sediment, and the mixture was again centrifuged to give a sediment, which was then dried and dissolved in water. mRNA was isolated from the whole RNAs as followings. In view of the fact that a poly A chain is attached to the 3′ terminus of mRNA, a polynucleotide having a poly T structure which was immobilized on the surface of latex beads was used to trap the mRNA, and then the mRNA was washed and eluted with spine column (Oligotex-dT30<Super>mRNA Purification Kit, Takara). Reverse transcription of the mRNA was conducted with a reverse transcriptase (Super Script II Reverse Transcriptase; catalogue No. 18064-014, GibcoBRL) using fluorescence-labeled nucleotides to give cDNAs that were introduced with Cy3-dUTP or Cy5-dUTP during the reverse transcription.
The labeled cDNAs were dissolved in TE buffer (10mM Tris-HCl/1 mM EDTA, pH8.0), and the solution was dropped on the DNA chip containing the whole genes of yeast (DNA Chip Research Inc. Japan) so that the cDNAs were hybridized on the DNA chip at 65° C. for over 12 hours. The fluoresces intensity of the DNA chip was read with a scanner, and the ratio relative to the fluorescence intensity resulting from the absence of chemical substance was estimated as the following, which is shown in Tables 1 to 9: […]

C=CC=O [(14), acrolein]
7.3: The level of expressed mRNA in the presence of chemical substance/The level of expressed mRNA in the absence of chemical substance (yeast gene YFL014W)
0.5: The level of expressed mRNA in the presence of chemical substance/The level of expressed mRNA in the absence of chemical substance (yeast gene YAL038W) | The level of expressed mRNA in the presence of chemical substance/The level of expressed mRNA in the absence of chemical substance (yeast gene YBR222C) | The level of expressed mRNA in the presence of chemical substance/The level of expressed mRNA in the absence of chemical substance (yeast gene YGL022W) | level of expressed mRNA in the presence/in the absence of chemical substance (yeast gene YGR204W)
1.1: The level of expressed mRNA in the presence of chemical substance/The level of expressed mRNA in the absence of chemical substance (yeast gene YCR098C) | level of expressed mRNA in the presence/in the absence of chemical substance (yeast gene YER015W) | The level of expressed mRNA in the presence of chemical substance/The level of expressed mRNA in the absence of chemical substance (yeast gene YER026C) | The level of expressed mRNA in the presence of chemical substance/The level of expressed mRNA in the absence of chemical substance (yeast gene YGR256W) | level of expressed mRNA in the presence/in the absence of chemical substance (yeast gene YGR288W) | level of expressed mRNA in the presence/in the absence of chemical substance (yeast gene YJL216C) | The level of expressed mRNA in the presence of chemical substance/The level of expressed mRNA in the absence of chemical substance (yeast gene YJL219W)
0.8: level of expressed mRNA in the presence/in the absence of chemical substance (yeast gene YBR003W) | The level of expressed mRNA in the presence of chemical substance/The level of expressed mRNA in the absence of chemical substance (yeast gene YBR023C) | The level of expressed mRNA in the presence of chemical substance/The level of expressed mRNA in the absence of chemical substance (yeast gene YCL064C) | level of expressed mRNA in the presence/in the absence of chemical substance (yeast gene YDR345C) | level of expressed mRNA in the presence/in the absence of chemical substance (yeast gene YDR483W) | The level of expressed mRNA in the presence of chemical substance/The level of expressed mRNA in the absence of chemical substance (yeast gene YDR502C) | level of expressed mRNA in the presence/in the absence of chemical substance (yeast gene YEL063C) | level of expressed mRNA in the presence/in the absence of chemical substance (yeast gene YFL011W) | The level of expressed mRNA in the presence of chemical substance/The level of expressed mRNA in the absence of chemical substance (yeast gene YFL030W) | level of expressed mRNA in the presence/in the absence of chemical substance (yeast gene YGL012W) | level of expressed mRNA in the presence/in the absence of chemical substance (yeast gene YHR123W) | The level of expressed mRNA in the presence of chemical substance/The level of expressed mRNA in the absence of chemical substance (yeast gene YHR137W)
3.0: The level of expressed mRNA in the presence of chemical substance/The level of expressed mRNA in the absence of chemical substance (yeast gene YJL031C)
1.6: The level of expressed mRNA in the presence of chemical substance/The level of expressed mRNA in the absence of chemical substance (yeast gene YDR019C) | level of expressed mRNA in the presence/in the absence of chemical substance (yeast gene YER081W) | The level of expressed mRNA in the presence of chemical substance/The level of expressed mRNA in the absence of chemical substance (yeast gene YGL209W) | The level of expressed mRNA in the presence of chemical substance/The level of expressed mRNA in the absence of chemical substance (yeast gene YIL045W) | The level of expressed mRNA in the presence of chemical substance/The level of expressed mRNA in the absence of chemical substance (yeast gene YIL107C)
7.8: The level of expressed mRNA in the presence of chemical substance/The level of expressed mRNA in the absence of chemical substance (yeast gene YFL056C)
0.7: The level of expressed mRNA in the presence of chemical substance/The level of expressed mRNA in the absence of chemical substance (yeast gene YCL009C) | level of expressed mRNA in the presence/in the absence of chemical substance (yeast gene YDR123C) | The level of expressed mRNA in the presence of chemical substance/The level of expressed mRNA in the absence of chemical substance (yeast gene YDR516C) | level of expressed mRNA in the presence/in the absence of chemical substance (yeast gene YGR191W) | level of expressed mRNA in the presence/in the absence of chemical substance (yeast gene YJR077C)
0.6: level of expressed mRNA in the presence/in the absence of chemical substance (yeast gene YCR034W) | The level of expressed mRNA in the presence of chemical substance/The level of expressed mRNA in the absence of chemical substance (yeast gene YDR380W) | The level of expressed mRNA in the presence of chemical substance/The level of expressed mRNA in the absence of chemical substance (yeast gene YDR497C) | level of expressed mRNA in the presence/in the absence of chemical substance (yeast gene YHR025W) | The level of expressed mRNA in the presence of chemical substance/The level of expressed mRNA in the absence of chemical substance (yeast gene YHR174W) | level of expressed mRNA in the presence/in the absence of chemical substance (yeast gene YJR143C) | The level of expressed mRNA in the presence of chemical substance/The level of expressed mRNA in the absence of chemical substance (yeast gene YKL035W)
1.9: The level of expressed mRNA in the presence of chemical substance/The level of expressed mRNA in the absence of chemical substance (yeast gene YFR047C)
1.4: The level of expressed mRNA in the presence of chemical substance/The level of expressed mRNA in the absence of chemical substance (yeast gene YIL167W)
5.6: The level of expressed mRNA in the presence of chemical substance/The level of expressed mRNA in the absence of chemical substance (yeast gene YBR256C)
1.2: level of expressed mRNA in the presence/in the absence of chemical substance (yeast gene YCR010C) | level of expressed mRNA in the presence/in the absence of chemical substance (yeast gene YDR050C) | level of expressed mRNA in the presence/in the absence of chemical substance (yeast gene YDR073W) | level of expressed mRNA in the presence/in the absence of chemical substance (yeast gene YGL115W) | The level of expressed mRNA in the presence of chemical substance/The level of expressed mRNA in the absence of chemical substance (yeast gene YGR055W) | level of expressed mRNA in the presence/in the absence of chemical substance (yeast gene YGR096W) | The level of expressed mRNA in the presence of chemical substance/The level of expressed mRNA in the absence of chemical substance (yeast gene YIR034C) | The level of expressed mRNA in the presence of chemical substance/The level of expressed mRNA in the absence of chemical substance (yeast gene YIR036C) | The level of expressed mRNA in the presence of chemical substance/The level of expressed mRNA in the absence of chemical substance (yeast gene YJR137C)
1.5: level of expressed mRNA in the presence/in the absence of chemical substance (yeast gene YDR178W) | The level of expressed mRNA in the presence of chemical substance/The level of expressed mRNA in the absence of chemical substance (yeast gene YGR037C) | The level of expressed mRNA in the presence of chemical substance/The level of expressed mRNA in the absence of chemical substance (yeast gene YJL068C)
0.9: The level of expressed mRNA in the presence of chemical substance/The level of expressed mRNA in the absence of chemical substance (yeast gene YAL012W) | level of expressed mRNA in the presence/in the absence of chemical substance (yeast gene YBR011C) | The level of expressed mRNA in the presence of chemical substance/The level of expressed mRNA in the absence of chemical substance (yeast gene YBR029C) | The level of expressed mRNA in the presence of chemical substance/The level of expressed mRNA in the absence of chemical substance (yeast gene YCR048W) | level of expressed mRNA in the presence/in the absence of chemical substance (yeast gene YDR400W) | level of expressed mRNA in the presence/in the absence of chemical substance (yeast gene YDR408C) | level of expressed mRNA in the presence/in the absence of chemical substance (yeast gene YER120W) | The level of expressed mRNA in the presence of chemical substance/The level of expressed mRNA in the absence of chemical substance (yeast gene YER178W) | The level of expressed mRNA in the presence of chemical substance/The level of expressed mRNA in the absence of chemical substance (yeast gene YIL154C) | level of expressed mRNA in the presence/in the absence of chemical substance (yeast gene YJL121C) | level of expressed mRNA in the presence/in the absence of chemical substance (yeast gene YJL167W) | The level of expressed mRNA in the presence of chemical substance/The level of expressed mRNA in the absence of chemical substance (yeast gene YJL172W)
1.7: The level of expressed mRNA in the presence of chemical substance/The level of expressed mRNA in the absence of chemical substance (yeast gene YHR111W)
0.4: The level of expressed mRNA in the presence of chemical substance/The level of expressed mRNA in the absence of chemical substance (yeast gene YFL031W)
2.0: The level of expressed mRNA in the presence of chemical substance/The level of expressed mRNA in the absence of chemical substance (yeast gene YJL088W)
3.1: The level of expressed mRNA in the presence of chemical substance/The level of expressed mRNA in the absence of chemical substance (yeast gene YER096W)
1.3: The level of expressed mRNA in the presence of chemical substance/The level of expressed mRNA in the absence of chemical substance (yeast gene YBR183W) | level of expressed mRNA in the presence/in the absence of chemical substance (yeast gene YDR277C) | level of expressed mRNA in the presence/in the absence of chemical substance (yeast gene YDR284C) | The level of expressed mRNA in the presence of chemical substance/The level of expressed mRNA in the absence of chemical substance (yeast gene YER053C) | The level of expressed mRNA in the presence of chemical substance/The level of expressed mRNA in the absence of chemical substance (yeast gene YER069W) | The level of expressed mRNA in the presence of chemical substance/The level of expressed mRNA in the absence of chemical substance (yeast gene YGL248W) | The level of expressed mRNA in the presence of chemical substance/The level of expressed mRNA in the absence of chemical substance (yeast gene YHR176W) | The level of expressed mRNA in the presence of chemical substance/The level of expressed mRNA in the absence of chemical substance (yeast gene YIL155C) | The level of expressed mRNA in the presence of chemical substance/The level of expressed mRNA in the absence of chemical substance (yeast gene YJR148W)
1.0: level of expressed mRNA in the presence/in the absence of chemical substance (yeast gene YBR020W) | level of expressed mRNA in the presence/in the absence of chemical substance (yeast gene YGL205W) | The level of expressed mRNA in the presence of chemical substance/The level of expressed mRNA in the absence of chemical substance (yeast gene YGR194C) | The level of expressed mRNA in the presence of chemical substance/The level of expressed mRNA in the absence of chemical substance (yeast gene YGR282C) | level of expressed mRNA in the presence/in the absence of chemical substance (yeast gene YHR210C) | level of expressed mRNA in the presence/in the absence of chemical substance (yeast gene YIL006W)
23.4: The level of expressed mRNA in the presence of chemical substance/The level of expressed mRNA in the absence of chemical substance (yeast gene YFL057C)
9.4: The level of expressed mRNA in the presence of chemical substance/The level of expressed mRNA in the absence of chemical substance (yeast gene YJR155W)
1.8: The level of expressed mRNA in the presence of chemical substance/The level of expressed mRNA in the absence of chemical substance (yeast gene YBR068C) | The level of expressed mRNA in the presence of chemical substance/The level of expressed mRNA in the absence of chemical substance (yeast gene YJL099W)
